# Experimental data from the supplement of paper PMC10307832.
# Tests used:
# Assay in all cases: relative viability (nuclei count vs DMSO), 5 days (fraction); higher = more cells survive
# [1] = test system: PC-14
# Outline: (§1)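 Relative viability is defined as nuclei in treated wells over nuclei in vehicle wells. Duplicate plates were run and medians reported. Lung cancer cell lines in 1536-well plates were dosed by pin tool one day after seeding, with one drug or with a fixed anchor-drug dose plus five library-drug doses (not always all listed) in √10 steps, and nuclei were counted after 5 days.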
# [2] = test system: LK-2
# Outline: as §1
# [3] = test system: NCI-H661
# Outline: as §1
# [4] = test system: NCI-H1993
# Outline: as §1
# [5] = test system: ABC-1
# Outline: as §1
# [6] = test system: A-427
# Outline: as §1
# [7] = test system: NCI-H2405
# Outline: as §1
# [8] = test system: NCI-H23
# Outline: as §1
# [9] = test system: NCI-H1755
# Outline: as §1
# [10] = test system: NCI-H1793
# Outline: as §1
# [11] = test system: LOU-NH91
# Outline: as §1
# [12] = test system: LU99A
# Outline: as §1
# [13] = test system: NCI-H2342
# Outline: as §1
# [14] = test system: NCI-H1437
# Outline: as §1
# [15] = test system: HARA
# Outline: as §1
# [16] = test system: BEN
# Outline: as §1
# [17] = test system: NCI-H2170
# Outline: as §1
# [18] = test system: LCLC-103H
# Outline: as §1
# [19] = test system: NCI-H1666
# Outline: as §1
# [20] = test system: NCI-H3122
# Outline: as §1
# [21] = test system: NCI-H2085
# Outline: as §1
# [22] = test system: LXF-289
# Outline: as §1
# [23] = test system: RERF-LC-KJ
# Outline: as §1
compound,measurement,setting,value
Oc1nc(-c2ccc(C(F)(F)F)cc2)nc2c1CSCC2 [XAV939] + CC(=O)c1c(C)c2cnc(Nc3ccc(N4CCNCC4)cn3)nc2n(C2CCCC2)c1=O [Palbociclib] (partner 0.5 µM),relative viability,[1]; first compound 0.08 µM,0.723
same,relative viability,[1]; first compound 0.253 µM,0.47
same,relative viability,[1]; first compound 0.8 µM,0.451
same,relative viability,[1]; first compound 2.53 µM,0.375
same,relative viability,[2]; first compound 0.08 µM,0.526
same,relative viability,[2]; first compound 0.253 µM,0.626
same,relative viability,[2]; first compound 0.8 µM,0.609
same,relative viability,[2]; first compound 2.53 µM,0.545
same,relative viability,[3]; first compound 0.08 µM,0.407
same,relative viability,[3]; first compound 0.253 µM,0.394
same,relative viability,[3]; first compound 0.8 µM,0.409
same,relative viability,[3]; first compound 2.53 µM,0.388
same,relative viability,[4]; first compound 0.08 µM,0.617
same,relative viability,[4]; first compound 0.253 µM,0.474
same,relative viability,[4]; first compound 0.8 µM,0.469
same,relative viability,[4]; first compound 2.53 µM,0.5
same,relative viability,[5]; first compound 0.253 µM,0.587
same,relative viability,[5]; first compound 0.8 µM,0.578
same,relative viability,[5]; first compound 2.53 µM,0.343
same,relative viability,[6]; first compound 0.08 µM,0.525
same,relative viability,[6]; first compound 0.253 µM,0.52
same,relative viability,[6]; first compound 0.8 µM,0.502
same,relative viability,[6]; first compound 2.53 µM,0.504
same,relative viability,[7]; first compound 0.08 µM,0.554
same,relative viability,[7]; first compound 0.253 µM,0.513
same,relative viability,[7]; first compound 0.8 µM,0.492
same,relative viability,[7]; first compound 2.53 µM,0.386
same,relative viability,[8]; first compound 0.08 µM,0.529
same,relative viability,[8]; first compound 0.8 µM,0.465
same,relative viability,[8]; first compound 2.53 µM,0.386
same,relative viability,[9]; first compound 0.08 µM,0.439
same,relative viability,[9]; first compound 0.253 µM,0.341
same,relative viability,[9]; first compound 0.8 µM,0.458
same,relative viability,[9]; first compound 2.53 µM,0.414
same,relative viability,[10]; first compound 0.08 µM,0.353
same,relative viability,[10]; first compound 0.253 µM,0.317
same,relative viability,[10]; first compound 0.8 µM,0.307
same,relative viability,[10]; first compound 2.53 µM,0.281
same,relative viability,[11]; first compound 0.08 µM,0.609
same,relative viability,[11]; first compound 0.253 µM,0.54
same,relative viability,[11]; first compound 0.8 µM,0.54
same,relative viability,[11]; first compound 2.53 µM,0.419
same,relative viability,[12]; first compound 0.08 µM,0.477
same,relative viability,[12]; first compound 0.253 µM,0.406
same,relative viability,[12]; first compound 0.8 µM,0.433
same,relative viability,[12]; first compound 2.53 µM,0.424
same,relative viability,[13]; first compound 0.08 µM,0.555
same,relative viability,[13]; first compound 0.253 µM,0.464
same,relative viability,[13]; first compound 0.8 µM,0.468
same,relative viability,[13]; first compound 2.53 µM,0.467
same,relative viability,[14]; first compound 0.08 µM,0.32
same,relative viability,[14]; first compound 0.253 µM,0.297
same,relative viability,[14]; first compound 0.8 µM,0.301
same,relative viability,[14]; first compound 2.53 µM,0.194
same,relative viability,[15]; first compound 0.08 µM,0.334
same,relative viability,[15]; first compound 0.253 µM,0.22
same,relative viability,[15]; first compound 0.8 µM,0.234
same,relative viability,[15]; first compound 2.53 µM,0.242
same,relative viability,[16]; first compound 0.08 µM,0.508
same,relative viability,[16]; first compound 0.253 µM,0.438
same,relative viability,[16]; first compound 0.8 µM,0.485
same,relative viability,[16]; first compound 2.53 µM,0.45
same,relative viability,[17]; first compound 0.08 µM,0.41
same,relative viability,[17]; first compound 0.253 µM,0.263
same,relative viability,[17]; first compound 0.8 µM,0.436
same,relative viability,[17]; first compound 2.53 µM,0.322
same,relative viability,[18]; first compound 0.08 µM,0.53
same,relative viability,[18]; first compound 0.253 µM,0.499
same,relative viability,[18]; first compound 0.8 µM,0.514
same,relative viability,[18]; first compound 2.53 µM,0.449
same,relative viability,[19]; first compound 0.08 µM,0.678
same,relative viability,[19]; first compound 0.253 µM,0.552
same,relative viability,[19]; first compound 0.8 µM,0.623
same,relative viability,[19]; first compound 2.53 µM,0.64
same,relative viability,[20]; first compound 0.08 µM,0.2
same,relative viability,[20]; first compound 0.253 µM,0.196
same,relative viability,[20]; first compound 0.8 µM,0.184
same,relative viability,[20]; first compound 2.53 µM,0.153
same,relative viability,[21]; first compound 0.08 µM,0.489
same,relative viability,[21]; first compound 0.253 µM,0.435
same,relative viability,[21]; first compound 0.8 µM,0.491
same,relative viability,[21]; first compound 2.53 µM,0.451
same,relative viability,[22]; first compound 0.08 µM,0.565
same,relative viability,[22]; first compound 0.253 µM,0.571
same,relative viability,[22]; first compound 0.8 µM,0.588
same,relative viability,[22]; first compound 2.53 µM,0.632
same,relative viability,[23]; first compound 0.08 µM,1.13
same,relative viability,[23]; first compound 0.253 µM,0.828
same,relative viability,[23]; first compound 0.8 µM,1.02
same,relative viability,[23]; first compound 2.53 µM,0.761
